These results are taken from patent US20210059959A1, “USE OF CANNABINOIDS IN THE TREATMENT OF MENTAL DISORDERS” (GW Pharma Limited, priority 2015, published 2021).

The subject of experiment [1] is patients with bipolar affective disorder. The conditions noted are these: two female patients, 30 days; one with olanzapine as adjunct, one CBD monotherapy; cited from earlier work.
In experiment [2] the test system is participants with schizophrenia or related psychotic disorder. Nature of the experiment: Brief Assessment of Cognition in Schizophrenia (BACS), double-blind placebo-controlled study of CBD as adjunctive therapy. It counts as in vivo, human. The conditions noted are these: all patients. The procedure: Example 1 below describes the use of a highly purified cannabis extract comprising cannabidiol (CBD) in a human clinical trial. Example 1 describes data produced in a double-blind, randomised, placebo-controlled, parallel group study of highly purified CBD as adjunctive therapy in first line treatment of schizophrenia or related psychotic disorder.
An eight-week, multi-centre, double-blind, randomised, placebo-controlled, parallel group study was conducted with the aim to determine the efficacy, safety and tolerability of highly purified CBD as adjunctive therapy in first line treatment of schizophrenia or related psychotic disorder.
This study evaluated the efficacy of highly purified CBD compared with placebo on the participant's PANSS Total score, ‘P’, ‘N’, ‘G’, SANS and BACS scores.
Changes from baseline in PANSS scores (Total, ‘P’, ‘N’ and ‘G’), SANS and BACS were recorded at the start of the study (baseline) and at the end of treatment (after 6 weeks treatment with CBD or placebo).
For inclusion in the study participants were required to be male or female aged 18 to 65 years, diagnosed with schizophrenia or a related psychotic disorder (such as schizoaffective or schizophreniform disorder) as defined by the Diagnostic and Statistical Manual of Mental Disorders Version 4. Participants must have been treated for a minimum of four-weeks and be on a stable dose of their current antipsychotic medication. […] A PANSS score in excess of 60 infers that the patient has symptoms related to schizophrenia or related disorders.
The participants were randomised to one of two treatment groups which each consisted of 39 participants. Treatment was administered as either 5 ml CBD (100 mg/ml) oral solution to be taken twice daily or 5 ml matched placebo oral solution to be taken twice daily.
Brief Assessment of Cognition in Schizophrenia (BACS)
The BACS is an instrument used to assess the aspects of cognition found to be most impaired and most strongly correlated with outcome in participants with schizophrenia or related psychotic disorder. The BACS yields a high completion rate in participants with schizophrenia or related psychotic disorder.
The BACS consists of six domains: verbal memory; working memory; motor speed; verbal fluency; attention and speed information processing and executive functions. A score is obtained for each domain and a composite summary score is also calculated as the average of the scores from the six domains. An increase in score is indicative of an improvement in cognition.
This instrument was assessed at each assessment visit (Visits 1-4).

As for `C=C(C)[C@@H]1CCC(C)=C[C@H]1c1c(O)cc(CCCCC)cc1O` [CBD, Cannabidiol], the “Efficacy in bipolar affective disorder” value in experiment [1] is “ineffective”. Besides, in experiment [2] (CBD adjunct, 6 weeks), the “Change in baseline scores, BACS composite score” value worked out at 3.5; the “Change in baseline scores, BACS sub-domain 1 Verbal memory” value amounted to 2.1; the “Change in baseline scores, BACS sub-domain 2 Working memory” value came to 1.8; the “Change in baseline scores, BACS sub-domain 3 Motor speed” value is listed as 6.2. Moreover, in experiment [2] (CBD adjunct, 6 weeks), the “Change in baseline scores, BACS sub-domain 4 Verbal fluency” value was 4.3; the “Change in baseline scores, BACS sub-domain 5 Attention and speed information processing” value is given as 4.4; the “Change in baseline scores, BACS sub-domain 6 Executive function” value is recorded as 2.0. The “Change in baseline scores, BACS sub-domain 3 Motor speed: difference” value in experiment [2] (CBD vs placebo, P = 0.0439) is recorded as “(4.2)”. Further, the “Change in baseline scores, BACS composite score: difference” value in experiment [2] (CBD vs placebo, P = 0.0677) was “(1.3)”. Besides, the “Change in baseline scores, BACS sub-domain 6 Executive function: difference” value in experiment [2] (CBD vs placebo, P = 0.0682) is recorded as “(1.4)”. For the same molecule, in experiment [2] (CBD vs placebo, P = 0.1414), the “Change in baseline scores, BACS sub-domain 2 Working memory: difference” value is “(1.0)”. For the same molecule, the “Change in baseline scores, BACS sub-domain 5 Attention and speed information processing: difference” value in experiment [2] (CBD vs placebo, P = 0.5915) is reported as “(0.9)”. In addition, in experiment [2] (CBD vs placebo, P = 0.8059), the “Change in baseline scores, BACS sub-domain 4 Verbal fluency: difference” value is reported as “(0.4)”. In addition, the “Change in baseline scores, BACS sub-domain 1 Verbal memory: difference” value in experiment [2] (CBD vs placebo, P = 0.9933) was “(0.1)”.
